Article PMC7932521, “2-aminobenzimidazoles for leishmaniasis: From initial hit discovery to in vivo profiling” (PLoS Neglected Tropical Diseases, 2021)
Where two headings read alike, the source gives them in different places.

Key:
[1] = system: Leishmania infantum MHOM/MA(BE)/67/ITMAP263 amastigotes; experiment: L. infantum intracellular amastigote assay in PMM; format: cell-based; conditions: for IC50: Leishmania infantum, read-out: L. infantum IC50; for SI: selectivity index (CC50 / IC50): CC50 / L. infantum IC50; for potency compared to initial hit 1: L. infantum IC50
Experimental: (§1) Leishmania infantum MHOM/MA(BE)/67/ITMAP263 amastigotes were collected from the spleen of infected donor Golden hamsters. Primary peritoneal mouse macrophages (PMM) were used as host cells for in vitro assays. PMM were collected from Swiss mice after 2 days of peritoneal stimulation with a 2% suspension of potato starch and maintained in RPMI-1640 medium supplemented with 200 mM L-glutamine, antibiotics and 5% FCS at 37°C and 5% CO2. Promastigotes of L. infantum chagasi (luciferase) (MHOM/BR/2005/NLC) obtained as described in Reimão et al.,[27] were grown in M199 medium supplemented with 10% FCS, 0.25% hemin, 32 μg/ml hygromycin and 2% sterile human urine at 25°C and 5% CO2.
(§2) Stock solutions of the compounds at 20 mM were prepared in 100% DMSO. Next, the compounds were serially pre-diluted in DMSO followed by a further dilution in demineralized water to assure a final in-test DMSO concentration below 1%. The compounds were tested at 4-fold dilutions starting at 64 μM.
For the antileishmania in vitro assays, 3×10^4 PMM/well were seeded in 96-well plates. After 24h, 5×10^5 amastigotes/well were added and incubated for 2h at 37°C. Next, the compounds in 4-fold serial dilutions were added and the plates were further incubated for 5 days (37°C, 5% CO2). Parasite burdens were assessed using an inverted microscope after Giemsa staining. The results were expressed as percent reduction in parasite burdens compared to negative control wells (100% growth) and IC50 values were determined. Values represent the geometric mean of at least two independent experiments. Miltefosine was used as the positive control in all plates.

[2] = Experimental distribution coefficient (eLogD); format: physicochemical; conditions: pH 7.4
Experimental: To determine the lipophilicity of the compounds, a methodology based on the retention time of molecules in reverse stationary phase (Ascentis RP-Amide HPLC column) was used. The chromatogram was obtained using LC-MS/MS. Test compounds were prepared at 1.0 μg/mL by adding the stock solution at (1:1) mobile phases A:B + internal standard at 200nM (A: 5% methanol in 10mM ammonium acetate pH 7.4, B: 100% methanol), DMSO concentration must be lower than 2%. […] The retention time (in minutes) of each of the eight standards was plotted against their LogD values. The resulting equation for the calibration curve (y = mx + b) was used to calculate the LogD values for the test compounds.

[3] = system: PMM (Primary Mouse Macrophages); experiment: Cytotoxicity on primary peritoneal mouse macrophages; format: cell-based; conditions: Mus musculus, Macrophage, read-out: PMM IC50
Experimental: as §1, §2

[4] = Mouse liver microsomal stability; format: in vitro ADME; conditions: for microsomal CLint at 0.5 μM: CD1, mouse, liver microsomes, pH 7.4, S1 Data, read-out: MLM CLint
Experimental: The metabolic stability of the compounds was evaluated in human (pool of 200 donors, XenoTech) and mouse liver microsomes (CD1 mouse, GIBCO). Test compounds were prepared at a concentration of 0.5 μM and incubated with 0.25 mg/mL liver microsomes at pH 7.4 and 37°C. The reaction was started by addition of NADPH at […]. Samples were taken at 0, 5, 10, 15, 20 and 30 minutes. The reaction was stopped by the addition of acetonitrile:methanol (1:1) containing an internal standard (tolbutamide at 50 nM). Compounds were quantified by liquid chromatography triple quadrupole mass spectrometry (LC-MS/MS). Peak area ratios (analyte/internal standard) were converted to % remaining using the area ratio at time 0 as 100%. Half-life (t1/2 = ln(2)/k) in minutes and intrinsic clearance (Clint = k x 1000/(0.25)) in μL/min/mg were calculated using a non-linear regression from % remaining versus incubation time. From this plot, the slope (k) was determined. The analysis conditions were: analytical column (Gemini C18, […], Phenomenex), electrospray ionization source (ESI) in positive and negative mode, mobile phase A (water + 0.1% formic acid) and B (acetonitrile + 0.1% formic acid), flow rate of 0.7 mL/min.

[5] = Parallel artificial membrane permeability assay (PAMPA); format: in vitro ADME
Experimental: To determine the passive permeability of the compounds, a 96-well plate containing membranes pre-coated with lipids (Corning Gentest # 353015) was used. The solutions of the compounds were prepared by diluting the stock solutions (10mM) in phosphate buffered saline (PBS) pH 6.5 at a final concentration of 10μM. The solutions diluted in PBS pH 6.5 were then added to the donor portion of the plate (300 μl/well), while PBS pH 7.4 (200 μl/well) was added to the acceptor portion. The two portions of the plate were then coupled, and the system was incubated for 5 h at 37°C. At the end of the incubation, samples were collected from the donor and acceptor plates, and then added to plates containing quench solution (10% water and 90% methanol: acetonitrile (50:50) + 50 nM tolbutamide). The final concentrations of compounds in the donor, acceptor, and initial solution (T0) wells were analyzed using LC-MS/MS. The results were used to calculate an effective permeability (Pe) value. The PAMPA assay was performed in triplicate (n = 3).

MRC-5 cytotoxicity = format: cell-based; conditions: human, MRC-5 cells; S1 Data
[6] = 120 h, intracellular amastigotes in PMM, 5 days
[7] = reverse-phase HPLC retention (Ascentis RP-Amide column), experimental
[8] = reverse stationary phase HPLC column (Ascentis RP-Amide), S1 Data
[9] = PAMPA, S1 Data, read-out: PAMPA Pe

Row | Structure (SMILES) | IC50 [1, 6] [µM] | chromatographic logD [2, 7] | IC50 [3] [µM] | MLM CLint ([4]; mouse liver microsome intrinsic clearance) [µL/min/mg] | Papp at 5 h, 10 μM ([5]; passive permeability, read-out: PAMPA) [×10⁻⁶ cm/s] | SI: selectivity index (CC50 / IC50) [1] | IC50 ([1]; S1 Data) [µM] | chromatographic logD [2, 8] | CC50 (MRC-5 cytotoxicity) [µM] | MLM CLint ([4]; S1 Data) [µL/min/mg] | potency compared to initial hit 1 [1] [fold] | eLogD ([2]; experimental) | Papp at 5 h, 10 μM [5, 9] [×10⁻⁶ cm/s] | microsomal CLint at 0.5 μM [4] [µL/min/mg]
1 | CCCn1c(NC(=O)Cc2ccc(Cl)cc2)nc2ccccc21 [Compound 1] | 12 | 4.6 | > 64 | 3094 | 6.7 | – | – | – | – | – | – | – | – | –
2 | CCCn1c(NC(=O)Cc2ccc(Cl)cc2)nc2ccc(F)cc21 [Compound 3, CCCn1c(cc(F)cc2)c2nc1NC(=O)Cc3ccc(Cl)cc3] | 2.9 | – | 12.7 | – | – | 4 | 2.94 | 4.31 | 56.7 | 1590 | – | – | – | –
3 | CCCn1c(NC(=O)Cc2ccc(Cl)cc2)nc2cc(F)ccc21 [Compound 4, CCCn1c(ccc(F)c2)c2nc1NC(=O)Cc3ccc(Cl)cc3] | 4.3 | – | 20.2 | – | – | 5 | 4.35 | 4.26 | > 64 | 1510 | – | – | – | –
4 | CCCn1c(NC(=O)Cc2ccc(Cl)cc2)nc2cc(C(F)(F)F)ccc21 [Compound 7, CCCn1c(ccc(C(F)(F)F)c2)c2nc1NC(Cc3ccc(Cl)cc3)=O] | 2 | – | 16 | – | – | 8 | 2.01 | 4.69 | 11.2 | 283 | 6 | 4.7 | – | –
5 | Cn1c(NC(=O)Cc2ccc(Cl)cc2)nc2ccccc21 [Compound 17, O=C(Nc1n(C)c(cccc2)c2n1)Cc3ccc(Cl)cc3] | 33 | – | 32 | – | – | – | 32.5 | – | > 64 | – | – | – | – | –
6 | CC(C)(C)Cn1c(NC(=O)Cc2ccc(C(F)(F)F)cc2)nc2ccccc21 [Compound 20, CC(Cn1c(cccc2)c2nc1NC(Cc3ccc(C(F)(F)F)cc3)=O)(C)C] | 8.2 | 4.9 | 22.6 | – | – | – | 8.18 | – | > 32 | – | – | – | – | –
7 | O=C(Cc1ccc(Cl)cc1)Nc1nc2ccc(F)cc2n1CC(F)(F)F [Compound 23, Fc1cc2c(nc(NC(=O)Cc3ccc(Cl)cc3)n2CC(F)(F)F)cc1] | 4.8 | – | 45.2 | – | – | – | 4.82 | 4.46 | > 64 | – | – | – | 7.07 | –
8 | O=C(Cc1ccc(F)cc1)Nc1nc2cc(F)ccc2n1C1CCNCC1 [Compound 25, O=C(Nc1n(C2CCNCC2)c(c3n1)ccc(F)c3)Cc4ccc(F)cc4] | 34 | – | > 64 | – | – | – | 34.4 | 3.08 | > 64 | – | – | – | 0.19 | –
9 | CCN(CC)CCCn1c(NC(=O)Cc2ccc(F)cc2)nc2ccc(C#N)cc21 [Compound 26, CCN(CC)CCCn1c(cc(C#N)cc2)c2nc1NC(Cc3ccc(F)cc3)=O] | – | – | > 64 | – | – | – | > 64 | – | > 64 | – | – | – | – | 154
10 | Cn1nccc1C(=O)Nc1nc2ccc(C#N)cc2n1C1CC1 [Compound 31, O=C(c1ccnn1C)Nc2nc(ccc(C#N)c3)c3n2C4CC4] | 30 | – | > 64 | – | – | 2 | 30 | – | > 64 | – | – | – | 14.4 | 162
11 | Cn1nncc1C(=O)Nc1nc2ccc(C#N)cc2n1CC(F)(F)F [Compound 33, O=C(c1cnnn1C)Nc2nc(ccc(C#N)c3)c3n2CC(F)(F)F] | 15 | – | 32 | – | – | 2 | 14.8 | 4 | > 64 | – | – | 4.0 | – | –
12 | Cn1cc(C(=O)Nc2nc3ccc(C#N)cc3n2CC(F)(F)F)cn1 [Compound 36, O=C(c1cn(C)nc1)Nc2nc(ccc(C#N)c3)c3n2CC(F)(F)F] | 8.7 | – | 16 | – | – | 2 | 8.74 | – | 56.1 | – | – | – | – | –
13 | N#Cc1ccc2nc(NC(=O)c3ccnn3C3CC3)n(CC(F)(F)F)c2c1 [Compound 37, O=C(c1ccnn1C2CC2)Nc3nc(ccc(C#N)c4)c4n3CC(F)(F)F] | 10 | – | 45.2 | – | – | 5 | 10.1 | – | 3 | – | – | – | – | –
14 | Cc1ccc(C(=O)Nc2nc3ccc(C#N)cc3n2CC(F)(F)F)cn1 [Compound 42, O=C(c1ccc(C)nc1)Nc2nc(ccc(C#N)c3)c3n2CC(F)(F)F] | 4.7 | – | 8 | – | – | 2 | 4.65 | – | > 64 | – | – | – | 13.2 | –
15 | N#Cc1ccc2nc(NC(=O)c3cnc(C(F)(F)F)nc3)n(CC(F)(F)F)c2c1 [Compound 46, O=C(c1cnc(C(F)(F)F)nc1)Nc2nc(ccc(C#N)c3)c3n2CC(F)(F)F] | 1 | – | 4 | – | – | 4 | – | – | 1.78 | – | 10 to 20 | – | 1.46 | –
16 | Cn1nccc1C(=O)Nc1nc2ccc(C#N)cc2n1CC(F)F [Compound 47, FC(F)Cn1c(cc(C#N)cc2)c2nc1NC(c3ccnn3C)=O] | 8.8 | – | 22.6 | – | – | 3 | 8.78 | – | 12.3 | 383 | – | – | 10.6 | –
17 | Cn1nccc1C(=O)Nc1nc2ccc(C#N)cc2n1CCF [Compound 48, FCCn1c(cc(C#N)cc2)c2nc1NC(c3ccnn3C)=O] | 28 | – | 32 | – | – | 1 | 27.9 | – | 13.7 | 154 | – | – | 63.7 | –
18 | Cn1nccc1C(=O)Nc1nc2ccc(C#N)cc2n1CC(C)(C)O [Compound 49, O=C(c1ccnn1C)Nc2nc(ccc(C#N)c3)c3n2CC(O)(C)C] | 36 | – | > 64 | – | – | 2 | 36 | – | > 64 | – | – | – | 9.39 | < 23
19 | CCN(CC)CCCn1c(NC(=O)c2ccnn2C)nc2ccc(C#N)cc21 [Compound 52, CCN(CC)CCCn1c(cc(C#N)cc2)c2nc1NC(c3ccnn3C)=O] | 57 | – | > 64 | – | – | 1 | 57 | – | > 64 | – | – | – | – | 59
